Converted amounts (≈) assume the structure as drawn.
Experiments:
Bacillus subtilis [1] = experiment: Antibacterial MIC testing, microdilution, B. subtilis; format: cell-based; settings: for MIC: Bacillus subtilis, read-out: MIC antibacterial activity; for B. subtilis MIC: cation-adjusted Mueller-Hinton Broth, 24 h, 37°C
[2] = tested on: membrane permeable strain (BAS3023) of Escherichia coli; experiment: Antibacterial MIC testing, microdilution, E. coli; format: cell-based; settings: 24 h; for E. coli MIC: membrane permeable strain of E. coli, cation-adjusted Mueller-Hinton Broth, 37°C
E. coli DNA gyrase = E. coli DNA gyrase (Escherichia coli, UniProt P0AES4+P0AES6); experiment: E. coli DNA gyrase supercoiling assay; format: biochemical; settings: for E. coli DNA gyrase IC50: supercoiling assay, relaxed plasmid DNA
S. rolfsii = settings: cited from earlier work
E. coli topoisomerase I = E. coli topoisomerase I (Escherichia coli, UniProt P06612); experiment: E. coli topoisomerase I relaxation inhibition assay with supercoiled plasmid DNA; format: biochemical; settings: relaxation of supercoiled pBAD/Thio plasmid, 30 min at 37°C
Bacillus subtilis [3] = settings: cited from earlier work
[4] = tested on: membrane permeable strain (BAS3023) of Escherichia coli; settings: cited from earlier work

E. coli DNA gyrase, sequence (P0AES4 whole entry, one chain of several): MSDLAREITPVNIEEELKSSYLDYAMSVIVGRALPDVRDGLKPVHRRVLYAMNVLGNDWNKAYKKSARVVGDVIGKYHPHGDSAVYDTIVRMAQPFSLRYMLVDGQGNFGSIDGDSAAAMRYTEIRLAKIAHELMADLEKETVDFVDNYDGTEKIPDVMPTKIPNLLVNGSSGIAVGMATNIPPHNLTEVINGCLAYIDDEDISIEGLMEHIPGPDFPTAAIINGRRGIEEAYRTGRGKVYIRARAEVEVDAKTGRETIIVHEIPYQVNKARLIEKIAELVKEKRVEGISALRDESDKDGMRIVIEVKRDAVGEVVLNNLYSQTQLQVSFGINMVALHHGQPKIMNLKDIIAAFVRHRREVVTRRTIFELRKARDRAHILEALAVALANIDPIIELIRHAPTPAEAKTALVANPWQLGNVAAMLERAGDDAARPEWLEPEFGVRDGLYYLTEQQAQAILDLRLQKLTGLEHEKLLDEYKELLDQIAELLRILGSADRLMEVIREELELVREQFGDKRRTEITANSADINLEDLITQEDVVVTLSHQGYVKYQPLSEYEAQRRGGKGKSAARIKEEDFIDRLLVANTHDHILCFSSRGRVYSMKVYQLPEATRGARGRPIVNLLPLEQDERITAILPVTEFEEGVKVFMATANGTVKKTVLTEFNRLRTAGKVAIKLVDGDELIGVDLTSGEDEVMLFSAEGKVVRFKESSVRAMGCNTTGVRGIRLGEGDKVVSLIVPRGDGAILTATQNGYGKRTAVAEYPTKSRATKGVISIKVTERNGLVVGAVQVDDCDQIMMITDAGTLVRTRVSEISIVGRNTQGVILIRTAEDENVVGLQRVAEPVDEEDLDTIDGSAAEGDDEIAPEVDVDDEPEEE
E. coli topoisomerase I, sequence (P06612 whole entry): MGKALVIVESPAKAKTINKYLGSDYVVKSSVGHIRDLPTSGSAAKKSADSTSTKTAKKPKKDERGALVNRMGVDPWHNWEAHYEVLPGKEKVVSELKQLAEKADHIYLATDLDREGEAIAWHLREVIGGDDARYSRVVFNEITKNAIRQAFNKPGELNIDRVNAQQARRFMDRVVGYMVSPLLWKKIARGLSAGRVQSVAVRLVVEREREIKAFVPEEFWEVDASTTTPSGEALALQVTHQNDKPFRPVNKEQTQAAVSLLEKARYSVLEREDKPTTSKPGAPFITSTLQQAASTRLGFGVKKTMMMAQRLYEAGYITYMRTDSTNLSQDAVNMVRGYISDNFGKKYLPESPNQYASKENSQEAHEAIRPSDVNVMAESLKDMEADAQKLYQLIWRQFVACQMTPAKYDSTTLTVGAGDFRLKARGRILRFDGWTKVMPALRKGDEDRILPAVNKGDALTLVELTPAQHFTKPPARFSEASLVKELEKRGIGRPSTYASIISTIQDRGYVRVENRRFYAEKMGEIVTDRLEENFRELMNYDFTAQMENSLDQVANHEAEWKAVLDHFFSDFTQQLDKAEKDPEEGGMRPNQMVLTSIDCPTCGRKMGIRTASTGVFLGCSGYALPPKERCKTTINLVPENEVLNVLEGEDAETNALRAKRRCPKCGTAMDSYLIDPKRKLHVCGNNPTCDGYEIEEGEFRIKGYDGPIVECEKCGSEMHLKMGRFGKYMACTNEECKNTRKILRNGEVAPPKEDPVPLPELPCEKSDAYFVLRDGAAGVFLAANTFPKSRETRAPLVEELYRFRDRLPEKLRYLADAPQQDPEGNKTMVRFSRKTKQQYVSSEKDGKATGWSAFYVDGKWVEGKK

Structure (SMILES)	IC50 (E. coli DNA gyrase)	E. coli DNA gyrase IC50 (E. coli DNA gyrase)	E. coli MIC [2]	E. coli Topo I inhibition IC50 (E. coli topoisomerase I)	other results
O=C(O)c1cc(/N=N/c2cccc([N+](=O)[O-])c2)ccc1O [Compound 19]	–	–	–	–	MIC (Bacillus subtilis [1]): 200 to 400 µM (≈ 57.4 to 115 µg/mL)
Nc1ccc(/N=N/c2ccccc2)c(N)c1 [Compound 18]	–	–	–	–	MIC ([2]; Escherichia coli, read-out: E. coli MIC): 200 to 400 µM (≈ 42.5 to 84.9 µg/mL); MIC (Bacillus subtilis [1]): 200 to 400 µM (≈ 42.5 to 84.9 µg/mL)
CCCCCc1cc(O)cc(O)c1C(=O)O [Compound 4, 2,4-dihydroxy-6-pentylbenzoic acid]	> 1000 µM	no inhibitory activity	no inhibitory activity	–	B. subtilis MIC (Bacillus subtilis [1]): no inhibitory activity
O=C(OCc1ccccc1)c1ccc(OC(=O)c2ccc(OCc3ccccc3)cc2OCc2ccccc2)cc1O [Compound 10c]	> 1000 µM	–	–	–	–
COC(=O)c1c(C)cc(OC(=O)c2c(C)cc(O)c(C=O)c2O)c(C)c1O [atranorin]	–	–	–	–	ED50 antifungal activity against S. rolfsii (S. rolfsii): 39.70 µg/mL (≈ 106 µM)
CCCCCc1cc(O)cc(O)c1C(=O)Oc1cc(CCCCC)c2c(c1)OC(C)(C)OC2=O [Compound 14]	> 1000 µM	inactive	–	inactive	–
CCCCCc1cc(OC(=O)c2c(CCCCC)cc(OCc3ccccc3)cc2OCc2ccccc2)cc(O)c1C(=O)OCc1ccccc1 [Compound 6, benzyl 4-((2,4-bis(benzyloxy)-6-pentylbenzoyl)oxy)-2-hydroxy-6-pentylbenzoate]	> 1000 µM	inactive	–	inactive	–
CCCCCc1cc(OC(=O)c2c(O)cc(O)cc2CCCCC)cc(O)c1C(=O)O [Anziaic acid (synthetic sample), anziaic acid]	–	–	100 µM	–	MIC against Bacillus subtilis (Bacillus subtilis [3]): 6 µg/mL (≈ 13.9 µM); MIC against membrane permeable strain (BAS3023) of Escherichia coli [4]: 12 µg/mL
O=C(O)c1ccc(OC(=O)c2ccc(O)cc2O)cc1O [Compound 11c]	> 1000 µM	complete loss	complete loss	complete loss	B. subtilis MIC (Bacillus subtilis [1]): complete loss

Reference: publication PMC3867937 (MedChemComm, 2013)
